Format in all cases: organism-based
Assay [1] addresses T1, Phenylethanolamine N-methyltransferase (Mus musculus) (UniProt P40935).
T1 sequence (whole entry): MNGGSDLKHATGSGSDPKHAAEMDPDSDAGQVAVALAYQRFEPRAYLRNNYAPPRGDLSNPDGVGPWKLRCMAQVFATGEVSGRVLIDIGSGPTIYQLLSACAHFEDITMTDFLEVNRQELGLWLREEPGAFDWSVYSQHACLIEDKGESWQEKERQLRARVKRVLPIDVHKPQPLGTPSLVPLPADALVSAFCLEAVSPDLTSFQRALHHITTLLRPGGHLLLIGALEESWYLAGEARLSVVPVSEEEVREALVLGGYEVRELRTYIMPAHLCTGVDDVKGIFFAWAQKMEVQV
Description: Phenylethanolamine N-Methyltransferase inhibition assay in a 7-day mouse study was determined by epinephrine level at 25 mg/kg dose. Also on record: dose 25 mg/kg.

Assay [2] addresses T1, Phenylethanolamine N-methyltransferase (Mus musculus). Nature of the assay: Phenylethanolamine N-Methyltransferase inhibition assay in a 7-day mouse study was determined by epinephrine level at 100 mg/kg dose. Also on record: dose 100 mg/kg.
For assay [3] the target is unchanged. Nature of the assay: Phenylethanolamine N-Methyltransferase inhibition assay in a 7-day mouse study was determined by epinephrine level at 50 mg/kg dose. Set-up: dose 50 mg/kg.
The target in assay [4] is T2, Phenylethanolamine N-methyltransferase (Homo sapiens) (UniProt P11086).
T2 sequence (whole entry): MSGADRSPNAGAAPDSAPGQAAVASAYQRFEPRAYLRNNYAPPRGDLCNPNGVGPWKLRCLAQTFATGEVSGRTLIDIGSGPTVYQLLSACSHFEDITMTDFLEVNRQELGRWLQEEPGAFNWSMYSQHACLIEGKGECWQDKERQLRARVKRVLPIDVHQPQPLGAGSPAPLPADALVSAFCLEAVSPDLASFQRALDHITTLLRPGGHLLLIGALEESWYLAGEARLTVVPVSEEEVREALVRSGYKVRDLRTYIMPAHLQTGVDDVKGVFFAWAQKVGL
Nature of the assay: Epinephrine to norepinephrine ratio at 100 mg/kg dose. Also on record: dose 100 mg/kg. The conditions noted are these: Oryctolagus cuniculus.

For `NS(=O)(=O)c1ccc2c(c1)CNCC2`, the Epinephrine level in assay [1] came to 6.7; in assay [2], 5.8; in assay [3], 5.9.

For `O=S(=O)(Nc1ccc(Cl)cc1)c1ccc2c(c1)CNCC2`, the Epinephrine level in assay [1] came out at 8.

Molecule `O=S(=O)(Nc1ccc(Br)cc1)c1ccc2c(c1)CNCC2` yielded an Epinephrine level in assay [2] of 7. Also, in assay [4], the Ratio was 2.1.

(Values after ChEMBL document CHEMBL1121600, “Inhibitors of phenylethanolamine N-methyltransferase and epinephrine biosynthesis. 2. 1,2,3,4-Tetrahydroisoquinoline-7-sulfonanilides” (J Med Chem, 1980).)
